# Results as given in patent US6204293A, “Inhibitors of protein isoprenyl transferases” (University of Pittsburgh, priority 1998, dated 2001).
# Structures can show the parent of a compound that is named as a salt.
# Target: T1, Rat brain protein farnesyltransferase (Rattus norvegicus, UniProt Q02293+Q04631)
# T1 construct: Rat brain protein farnesyltransferase activity is measured; from tissue; host or cells: rat brain
# Assay: % inhibition of farnesylation, scintillation proximity assay with biotin-K Ras B fragment
# Format: biochemical
# Details: Table 6; * footnote 0.1 μM (title: 0.1 mM)
# Procedure, shortened: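 Rat brain enzyme, purified through three steps, in a scintillation proximity assay kit with biotin-K Ras B fragment substrate at 0.1 mM final. Value is % inhibition of farnesylation.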
# T1 sequence (Q02293 whole entry, one chain of several): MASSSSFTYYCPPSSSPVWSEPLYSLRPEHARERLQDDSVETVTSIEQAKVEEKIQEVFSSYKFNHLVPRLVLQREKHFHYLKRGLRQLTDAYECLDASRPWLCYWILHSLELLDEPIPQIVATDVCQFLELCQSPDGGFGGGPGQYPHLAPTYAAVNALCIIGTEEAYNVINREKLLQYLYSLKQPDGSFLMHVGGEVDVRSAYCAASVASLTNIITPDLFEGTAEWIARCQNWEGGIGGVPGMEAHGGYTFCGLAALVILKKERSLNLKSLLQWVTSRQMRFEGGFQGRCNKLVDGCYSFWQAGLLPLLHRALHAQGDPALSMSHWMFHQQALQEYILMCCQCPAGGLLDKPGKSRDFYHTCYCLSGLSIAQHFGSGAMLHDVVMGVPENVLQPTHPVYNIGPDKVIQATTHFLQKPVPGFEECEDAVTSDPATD
row,SMILES,% inhibition at 0.1 μM (*)
1,CCC(=O)N(CCCc1ccc(C(=O)N[C@@H](CCSC)C(=O)O)c(-c2ccccc2C)c1)C1CCCCC1 [Example 1145],83%
2,CCCCN(CCN1CCCCC1)Cc1ccc(C(=O)N[C@@H](CCSC)C(=O)O)c(-c2ccccc2C)c1 [Example 1196],87%

# Same assay, conditions: Table 6; ** footnote 0.01 μM (title: 0.01 mM)
row,SMILES,% inhibition at 0.01 μM (**)
1,CSCC[C@H](NC(=O)c1ccc(CN(CCF)CCC2CCCCC2)cc1-c1ccccc1C)C(=O)O [Example 1094],96%
2,COCCN(CCC1CCCCC1)Cc1ccc(C(=O)N[C@@H](CCSC)C(=O)O)c(-c2ccccc2C)c1 [Example 1104],89%
3,CCSCC(CC1CCCCC1)NCc1cc(-c2ccccc2C)c(C(=O)N[C@@H](CCSC)C(=O)O)cc1F (some centres unmarked) [Example 1134],95%

# Same assay, conditions: read-out: % inhibition at 0.01 μM (**)
row,SMILES,inhibition at 0.01 µM
1,"CCCCC(OCc1ccc(C(=O)N[C@@H](CCSC)C(=O)O)c(-c2ccccc2C)c1)c1cccc(Cl)c1 (some centres unmarked) [Example 1206, N-[4-(1-(3-chlorophenyl)pentan-1-yloxymethyl)-2-(2-methylphenyl)benzoyl]methionine lithium salt]",63%
2,"CSCC[C@H](NC(=O)c1ccc(COCc2ccnnc2)cc1-c1ccccc1C)C(=O)O [Example 1221, N-[4-(Pyridazin-4-ylmethoxymethyl)-2-(2-methylphenyl)benzoyl]methionine lithium salt]",82%
3,"CSCC[C@H](NC(=O)c1ccc(COC(CCC2CCCCC2)c2ccns2)cc1-c1ccccc1C)C(=O)O (some centres unmarked) [Example 1223, N-[4-(1-(Isothiaz-5-yl)-3-cyclohexylpropan-1-yloxymethyl)-2-(2-methylphenyl)benzoyl]methionine lithium salt]",91%

# Same assay, conditions: read-out: % inhibition at 0.01 μM (**); Table 6; ** footnote 0.01 μM (title: 0.01 mM)
row,SMILES,inhibition at 0.01 µM
1,"CSCC[C@H](NC(=O)c1ccc(CO[C@@H](CC2CCCCC2)C(=O)N2CCCCC2)cc1-c1ccccc1C)C(=O)O [Example 1052, N-[4-(3-cyclohexyl-N-piperidin-1-ylpropion-2-yloxymethyl)-2-(2-methylphenyl)benzoyl]methionine, lithium salt]",91%
2,"CSCC[C@H](NC(=O)c1ccc(CO[C@@H](CC2CCCCC2)C(=O)N2CC[S+]([O-])CC2)cc1-c1ccccc1C)C(=O)O [Example 1055, N-[4-(3-cyclohexyl-N-thiomorpholin-S-oxide-4-ylpropion-2-yloxymethyl)-2-(2-methylphenyl)benzoyl]methionine, lithium salt]",85%
3,"CSCC[C@H](NC(=O)c1ccc(COCc2ccc(C3CCCCC3)o2)cc1-c1ccccc1C)C(=O)O [Example 1090, [4-(2-(5-cyclohexylfuranyl)methoxymethyl)-2-(2-methylphenyl)-benzoyl]methionine, lithium salt]",81%
4,"CSCC[C@H](NC(=O)c1ccc(COCC2CCCN2C(=O)OCC2CCCCC2)cc1-c1ccccc1C)C(=O)O (some centres unmarked) [Example 1129, N-[4-(N-cyclohexylmethoxycarbonylpyrrolin-2-ylmethoxymethyl)-2-(2-methylphenyl)benzoyl]methionine Sodium salt]",92%

# Continued, values first:
row,inhibition at 0.01 µM,SMILES
1,79%,"COc1ccc(COC[C@H](CC2CCCCC2)OCc2ccc(C(=O)N[C@@H](CCSC)C(=O)O)c(-c3ccccc3C)c2)cc1 [Example 1051, N-[4-(3-cyclohexyl-1-(4-methoxybenzyloxy)prop-2-yloxymethyl)-2-(2-methylphenylbenzoyl]methionine, lithium salt]"
2,60%,"CSCC[C@H](NC(=O)c1ccc(CO[C@@H](CC2CCCCC2)C(=O)N2CCOCC2)cc1-c1ccccc1C)C(=O)O [Example 1053, N-[4-(3-cyclohexyl-N-morpholin-4-ylpropion-2-yloxymethyl)-2-(2-methylphenyl)benzoyl]methionine, lithium salt]"
3,89%,"CSCC[C@H](NC(=O)c1ccc(CO[C@@H](CC2CCCCC2)C(=O)N2CCSCC2)cc1-c1ccccc1C)C(=O)O [Example 1054, N-[4-(3-cyclohexyl-N-thiomorpholin-4-ylpropion-2-yloxymethyl)-2-(2-methylphenyl)benzoyl]methionine, lithium salt]"
4,80%,"CSCC[C@H](NC(=O)c1ccc(COC(CC2CCCCC2)c2scnc2C)cc1-c1ccccc1C)C(=O)O (some centres unmarked) [Example 1097, N-[4-(1-(4-methylthiazol-5-yl)-2-cyclohexylethoxy)methyl)-2-(2-methylphenyl)benzoyl]methionine lithium salt]"

# Same assay, conditions: read-out: % inhibition at 0.1 μM (*)
row,SMILES,inhibition at 0.1 µM
1,"CSCC[C@H](NC(=O)c1ccc(COC(CCC2CCCCC2)c2cccc(Cl)c2)cc1-c1ccccc1C)C(=O)O (some centres unmarked) [Example 1207, N-[4-(1-(3-chlorophenyl)-3-cyclohexylpropan-1-yloxymethyl)-2-(2-methylphenyl)benzoyl]methionine lithium salt]",91%
2,"CCCCC(OCc1ccc(C(=O)N[C@@H](CCSC)C(=O)O)c(-c2ccccc2C)c1)c1cccc(OC)c1 (some centres unmarked) [Example 1208, N-[4-(1-(3-Methoxyphenyl)pentan-1-yloxymethyl)-2-(2-methylphenyl)benzoyl]methionine lithium salt]",89%
3,"CCCOc1cccc(COCc2ccc(C(=O)N[C@@H](CCSC)C(=O)O)c(-c3ccccc3C)c2)c1 [Example 1209, N-[4-(3-(1-Propoxy)benzyloxymethyl)-2-(2-methylphenyl)benzoyl]methionine lithium salt]",87%

# Same assay, conditions: read-out: % inhibition at 0.1 μM (*); Table 6; * footnote 0.1 μM (title: 0.1 mM)
row,SMILES,inhibition at 0.1 µM
1,"CCCCC(OCc1ccc(C(=O)N[C@@H](CCSC)C(=O)O)c(-c2ccccc2C)c1)c1scnc1C (some centres unmarked) [Example 1095, N-[4-(1-(4-methylthiazol-5-yl)pentyloxy)methyl)-2-(2-methylphenyl)benzoyl]methionine lithium salt]",76%
2,"CCCCC(OCc1ccc(C(=O)N[C@@H](CCSC)C(=O)O)c(-c2ccccc2C)c1)c1sc(C)nc1C (some centres unmarked) [Example 1098, N-[4-1-(2,4-dimethylthiazol-5-yl)pentyloxy)methyl-2-(2-methylphenyl)benzoyl]methionine lithium salt]",60%
3,"CSCC[C@H](NC(=O)c1ccc(COCC2CCCN2C(=O)OCc2ccccc2)cc1-c1ccccc1C)C(=O)O (some centres unmarked) [Example 1128, lithium salt]",86%

# Now from value to compound:
row,inhibition at 0.1 µM,SMILES
1,86%,"CSCC[C@H](NC(=O)c1ccc(COC(CC2CCCCC2)c2sc(C)nc2C)cc1-c1ccccc1C)C(=O)O (some centres unmarked) [Example 1096, N-[4-(1-(2,4-dimethylthiazol-5-yl)-2-cyclohexylethoxy)methyl)-2-(2-methylphenyl)benzoyl]methionine lithium salt]"
2,96%,"CSCC[C@H](NC(=O)c1ccc(CCC(=O)OC2CCCCC2)cc1-c1ccccc1C)C(=O)O [Example 1152, N-[4-(cyclohexyloxycarbonylethyl)-2-(2-methylphenyl)benzoyl]methionine]"
3,89%,"CSCC[C@H](NC(=O)c1ccc(CCC(=O)OCC2CCCCC2)cc1-c1ccccc1C)C(=O)O [Example 1153, N-[4-(cyclohexylmethoxycarbonylethyl)-2-(2-methylphenyl)benzoyl]methionine]"
4,91%,"CCCCC(CCC1CCCCC1)OCc1ccc(C(=O)N[C@@H](CCSC)C(=O)O)c(-c2ccccc2C)c1 (some centres unmarked) [Example 1192, N-[4-(1-Cyclohexylheptan-3-yloxymethyl-2-(2-methylphenyl)benzoyl]methioninelithium salt]"
